Assay [1] addresses T1, hVR1 (Homo sapiens, UniProt Q8NER1).
T1 construct: expressed in transfected cells; host or cells: CHO K1 cells (ECACC), stably transfected
Briefly: Functional test on VR1, FLIPR Ca2+ influx in transfected CHO K1 cells, capsaicin. Type of assay: cell-based, human being. Details: key to Ki (human being) [nM] Cap: agonist / partial agonist / no effect: AG=agonist; pAG=partial agonist; NE=no effect. As to conditions: for Ki: capsaicin (Cap), includes values given in brackets after pAG, read-out: Ki (human being) [nM] Cap. The text has this: In the process, the Ca^2+ influx is quantified in the FLIPR assay with the aid of a Ca^2+-sensitive dye (type Fluo-4, Molecular Probes Europe BV, Leiden, the Netherlands) in a fluorescent imaging plate reader (FLIPR, Molecular Devices, Sunnyvale, USA), as described hereinafter.
II. Functional Tests Carried Out on the Vanilloid Receptor (VR1)
The agonistic or antagonistic effect of the substances to be tested on the vanilloid receptor 1 (VR1) can also be determined using the following assay. In this assay, the influx of Ca^2+ through the channel is quantified with the aid of a Ca^2+-sensitive dye (type Fluo-4, Molecular Probes Europe BV, Leiden, the Netherlands) in a fluorescent imaging plate reader (FLIPR, Molecular Devices, Sunnyvale, USA).
Chinese hamster ovary cells (CHO K1 cells, European Collection of Cell Cultures (ECACC) United Kingdom) are stably transfected with the VR1 gene. For functional testing, these cells are plated out on poly-D-lysine-coated black 96-well plates having a clear base (BD Biosciences, Heidelberg, Germany) at a density of 25,000 cells/well. The cells are incubated overnight at 37° C. and 5% CO2 in a culture medium (Ham's F12 nutrient mixture, 10% by volume of FCS (foetal calf serum), 18 μg/ml of L-proline). The next day the cells are incubated with Fluo-4 (Fluo-4 2 μM, 0.01% by volume of Pluronic F127, Molecular Probes in HBSS (Hank's buffered saline solution), Gibco Invitrogen GmbH, Karlsruhe, Germany) for 30 minutes at 37° C. Subsequently, the plates are washed three times with HBSS buffer and after further incubation for 15 minutes at RT used for Ca^2+ measurement in a FLIPR assay. The Ca^2+-dependent fluorescence is measured before and after the addition of the substances to be tested (λex wavelength=488 nm, λem=540 nm). Quantification is carried out by measuring the highest fluorescence intensity (FC, fluorescence counts) over time.
The FLIPR protocol consists of 2 substance additions. First the compounds to be tested (10 μM) are pipetted onto the cells and the Ca^2+ influx is compared with the control (capsaicin 10 μM) (% activation based on the Ca^2+ signal after the addition of 10 μM of capsaicin). After 5 minutes' incubation, 100 nM of capsaicin are applied and the Ca^2+ influx is also determined.
Desensitising agonists and antagonists led to suppression of the Ca^2+ influx. The % inhibition is calculated compared to the maximum achievable inhibition with 10 μM of capsaicin.
Starting from the percentage displacement caused by different concentrations of the compounds to be tested of general formula I, IC50 inhibitory concentrations which cause a 50-per cent displacement of capsaicin were calculated. Ki values for the test substances were obtained by conversion by means of the Cheng-Prusoff equation (Cheng, Prusoff; Biochem. Pharmacol. 22, 3099-3108, 1973).
The affinity of the compounds according to the invention for the vanilloid receptor 1 (VR1/TRPV1 receptor) was determined as described hereinbefore (pharmacological methods I and II respectively).

Assay [2] has as its target T1, hVR1. Briefly: Functional test on human VR1, 45° C. stimulus. As to conditions: for IC50: read-out: IC50 (human being) [nM], 45° C. Type of assay: cell-based, human being.
Setting [3] is: read-out: IC50 (human being), 45° C.: inhibition (as a percentage).

The text below walks through data of patent publication US8334315B2, “Substituted aromatic carboxamide and urea derivatives as vanilloid receptor ligands” (Gruenenthal GmbH, priority 2009, dated 2012).

Molecules are shown by their SMILES.

A word on the Ki: it is the equilibrium dissociation constant of an inhibitor or competing ligand from its target. One may read the IC50 as the midpoint of a concentration-inhibition curve. In general, inhibition refers to the share of the control response that was lost under treatment.

T1 sequence (Q8NER1 whole entry): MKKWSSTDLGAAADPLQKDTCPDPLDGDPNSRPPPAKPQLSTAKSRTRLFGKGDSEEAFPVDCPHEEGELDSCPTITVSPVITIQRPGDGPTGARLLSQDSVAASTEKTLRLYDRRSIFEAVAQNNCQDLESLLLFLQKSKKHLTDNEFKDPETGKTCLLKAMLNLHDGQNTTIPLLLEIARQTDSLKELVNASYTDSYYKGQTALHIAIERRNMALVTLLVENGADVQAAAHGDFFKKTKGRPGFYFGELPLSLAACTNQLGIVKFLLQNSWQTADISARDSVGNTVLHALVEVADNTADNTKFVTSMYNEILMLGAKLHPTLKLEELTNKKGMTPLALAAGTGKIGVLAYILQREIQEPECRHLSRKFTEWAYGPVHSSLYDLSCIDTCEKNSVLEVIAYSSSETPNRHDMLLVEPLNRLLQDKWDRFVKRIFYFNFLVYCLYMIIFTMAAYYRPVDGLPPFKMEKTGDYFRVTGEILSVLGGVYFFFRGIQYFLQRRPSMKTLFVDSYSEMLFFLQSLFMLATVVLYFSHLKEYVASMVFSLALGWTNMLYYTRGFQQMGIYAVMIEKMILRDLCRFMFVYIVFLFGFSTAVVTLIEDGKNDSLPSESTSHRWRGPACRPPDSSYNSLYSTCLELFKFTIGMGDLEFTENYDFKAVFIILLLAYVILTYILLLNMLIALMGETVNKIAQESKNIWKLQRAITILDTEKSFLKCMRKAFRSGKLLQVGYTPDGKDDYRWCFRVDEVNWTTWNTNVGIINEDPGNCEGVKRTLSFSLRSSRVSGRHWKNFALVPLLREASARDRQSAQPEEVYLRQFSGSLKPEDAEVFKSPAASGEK

As to `CC(C(=O)NCc1cc(C(F)(F)F)nn1-c1cccc(Cl)c1)c1cccc2c1CC=C2` (stereo not shown) [Example 24, N-((1-(3-chlorophenyl)-3-(trifluoromethyl)-1H-pyrazol-5-yl)methyl)-2-(1H-inden-7-yl)propanamide], the Ki in assay [1] is 4 nM. The concentration for half-maximal inhibition (IC50) in assay [2] was 686 nM.

Consider `O=C(NCc1cc(C(F)(F)F)nn1-c1cccc(Cl)c1)Nc1ccc2c(c1)OCO2` [Example 83, 1-(Benzo[d][1,3]dioxol-5-yl)-3-((1-(3-chlorophenyl)-3-(trifluoromethyl)-1H-pyrazol-5-yl)methyl)urea], for which the inhibitory constant (Ki) in assay [1] came to 50.7 nM. Moreover, the inhibition at 2.5 µM in assay [2] (setting [3]) worked out at 16%.

Turning to `O=C(NCc1cc(C(F)(F)F)nn1-c1cccc(Cl)c1)Nc1ccc2scnc2c1` [Example 97, 1-(benzo[d]thiazol-5-yl)-3-((1-(3-chlorophenyl)-3-(trifluoromethyl)-1H-pyrazol-5-yl)methyl)urea], in assay [1], the Ki was 4.9 nM. In addition, the IC50 in assay [2] worked out at 396 nM.

As for `CC(C)(C)c1cc(CNC(=O)Nc2cccc3ccc(O)cc23)n(-c2cccc(Cl)c2)n1` [Example 101, 1-((3-tert-butyl-1-(3-chlorophenyl)-1H-pyrazol-5-yl)methyl)-3-(7-hydroxynaphthalen-1-yl)urea], in assay [1], the inhibition constant (Ki) worked out at 0.5 nM. Moreover, in assay [2] (setting [3]), the inhibition at 2.5 µM was found to be 46%.

Consider `O=C(NCc1cc(C(F)(F)F)nn1-c1cccc(Cl)c1)Nc1cccc2ccc(O)cc12` [Example 102, 1-((1-(3-chlorophenyl)-3-(trifluoromethyl)-1H-pyrazol-5-yl)methyl)-3-(7-hydroxynaphthalen-1-yl)urea], for which, in assay [1], the Ki turned out to be 0.2 nM. Further, the inhibition at 2.5 µM in assay [2] (setting [3]) was determined as 48%.

Take `CC(C)(C)c1cc(CNC(=O)Nc2cccc3cccnc23)n(-c2cccc(Cl)c2)n1` [Example 107, 1-((3-tert-butyl-1-(3-chlorophenyl)-1H-pyrazol-5-yl)methyl)-3-(quinolin-8-yl)urea]: the Ki in assay [1] amounted to 22.4 nM. Also, the half-maximal inhibitory concentration (IC50) in assay [2] was 375 nM.

`O=C(NCc1cc(C(F)(F)F)nn1-c1cccc(Cl)c1)Nc1cccc2cnccc12` [Example 110, 1-((1-(3-chlorophenyl)-3-(trifluoromethyl)-1H-pyrazol-5-yl)methyl)-3-(isoquinolin-5-yl)urea]: the inhibition constant Ki in assay [1] is 0.4 nM. Moreover, in assay [2], the IC50 turned out to be 110 nM.

In the case of `CC(C(=O)NCc1cc(C(F)(F)F)nn1-c1cccc(Cl)c1)c1ccc2c(cnn2S(C)(=O)=O)c1` (stereo not shown) [Example 191, N-((1-(3-chlorophenyl)-3-(trifluoromethyl)-1H-pyrazol-5-yl)methyl)-2-(1-(methylsulfonyl)-1H-indazol-5-yl)propanamide], in assay [1], the “Ki (human being) [nM] Cap: agonist / partial agonist / no effect” value (“Ki … agonist / partial agonist / no effect” below) is reported as “pAG” and the inhibition constant Ki amounted to 0.6 nM.

On to `Cc1cc2c(NC(=O)NCc3cc(C(F)(F)F)nn3-c3cccc(Cl)c3)cccc2[nH]1` [Example 192, 1-((1-(3-chlorophenyl)-3-(trifluoromethyl)-1H-pyrazol-5-yl)methyl)-3-(2-methyl-1H-indol-4-yl)urea], for which, in assay [1], the Ki is 10.8 nM.

For the compound `CC(C(=O)NCc1cc(C(C)(C)C)nn1-c1cccc(Cl)c1)c1cc(F)cc2[nH]ncc12` (stereo not shown) [Example 193, N-((3-tert-butyl-1-(3-chlorophenyl)-1H-pyrazol-5-yl)methyl)-2-(6-fluoro-1H-indazol-4-yl)propanamide], in assay [1], the inhibition constant (Ki) stood at 1.6 nM.

Turning to `O=C(NCc1cc(C(F)(F)F)nn1-c1cccc(Cl)c1)Nc1cc(F)cc2[nH]ncc12` [Example 194, 1-((1-(3-chlorophenyl)-3-(trifluoromethyl)-1H-pyrazol-5-yl)methyl)-3-(6-fluoro-1H-indazol-4-yl)urea], the inhibitory constant (Ki) in assay [1] was determined as 8.4 nM.

As for `CC(C(=O)NCc1cc(C(F)(F)F)nn1-c1cccc(Cl)c1)c1ccc(F)c2[nH]ncc12` (stereo not shown) [Example 195, N-((1-(3-chlorophenyl)-3-(trifluoromethyl)-1H-pyrazol-5-yl)methyl)-2-(7-fluoro-1H-indazol-4-yl)propanamide], the Ki in assay [1] turned out to be 6.8 nM.

`O=C(NCc1cc(C(F)(F)F)nn1-c1cccc(Cl)c1)Nc1cccc2c(=O)[nH]ccc12` [Example 196, 1-((1-(3-chlorophenyl)-3-(trifluoromethyl)-1H-pyrazol-5-yl)methyl)-3-(1-oxo-1,2-dihydroisoquinolin-5-yl)urea]: the “Ki … agonist / partial agonist / no effect” value in assay [1] is recorded as “AG”.

Consider `CC(C(=O)NCc1cc(C(F)(F)F)nn1-c1cccc(Cl)c1)c1cccc2c(F)cccc12` (stereo not shown) [Example 197, N-((1-(3-chlorophenyl)-3-(trifluoromethyl)-1H-pyrazol-5-yl)methyl)-2-(5-fluoronaphthalen-1-yl)propanamide], for which the inhibition constant (Ki) in assay [1] worked out at 5.8 nM.

With `CC(C(=O)NCc1cc(C(F)(F)F)nn1-c1cccc(Cl)c1)c1cccc2c1ccc[n+]2[O-]` (stereo not shown) [Example 198, 5-(1-((1-(3-chlorophenyl)-3-(trifluoromethyl)-1H-pyrazol-5-yl)methylamino)-1-oxopropan-2-yl)quinolin 1-oxide], in assay [1], the “Ki … agonist / partial agonist / no effect” value is “AG”.

Regarding `CCCCCn1nc(C(F)(F)F)cc1CNC(=O)C(C)c1cccc2[nH]ncc12` (stereo not shown) [Example 199, 2-(1H-indazol-4-yl)-N-((1-pentyl-3-(trifluoromethyl)-1H-pyrazol-5-yl)methyl)propanamide], in assay [1], the inhibitory constant (Ki) was found to be 33.5 nM.

For `Cc1c(C(F)(F)F)nn(-c2cccc(Cl)c2)c1CNC(=O)C(C)c1ccc2c(c1)OCCO2` (stereo not shown) [Example 200, N-((1-(3-chlorophenyl)-4-methyl-3-(trifluoromethyl)-1H-pyrazol-5-yl)methyl)-2-(2,3-dihydrobenzo[b][1,4]dioxin-6-yl)propanamide], the Ki in assay [1] was 17.1 nM.

Take `O=C(NCc1cc(C(F)(F)F)nn1-c1cccc(Cl)c1)Nc1c(Cl)ccc2[nH]ncc12` [Example 205, 1-(5-chloro-1H-indazol-4-yl)-3-((1-(3-chlorophenyl)-3-(trifluoromethyl)-1H-pyrazol-5-yl)methyl)urea]: the Ki in assay [1] was determined as 0.8 nM.

As to `CC(C(=O)NCc1cc(C(F)(F)F)nn1-c1cccc(Cl)c1)c1cccc2c1CCC2=O` (stereo not shown) [Example 206, N-((1-(3-chlorophenyl)-3-(trifluoromethyl)-1H-pyrazol-5-yl)methyl)-2-(1-oxo-2,3-dihydro-1H-inden-4-yl)propanamide], in assay [1], the “Ki … agonist / partial agonist / no effect” value is on record as “pAG” and the Ki was determined as 0.4 nM.

In the case of `CC(C(=O)NCc1cc(C(F)(F)F)nn1-c1cccc(Cl)c1)c1cccc2c1CCC2O` (stereo not shown) [Example 207, N-((1-(3-chlorophenyl)-3-(trifluoromethyl)-1H-pyrazol-5-yl)methyl)-2-(1-hydroxy-2,3-dihydro-1H-inden-4-yl)propanamide], the Ki in assay [1] is 2.4 nM. The inhibition at 10 µM in assay [2] (@ 10 μM, read-out: IC50 (human being), 45° C.: inhibition (as a percentage)) came out at 14%.

Turning to `CC(C(=O)NCc1cc(C(F)(F)F)nn1-c1cccc(Cl)c1)c1cccc2c1CC(O)C2` (stereo not shown) [Example 208, N-((1-(3-chlorophenyl)-3-(trifluoromethyl)-1H-pyrazol-5-yl)methyl)-2-(2-hydroxy-2,3-dihydro-1H-inden-4-yl)propanamide], in assay [1], the Ki was found to be 62.6 nM. Besides, the 50% inhibitory concentration (IC50) in assay [2] came out at 298 nM.

`CC(C(=O)NCc1cc(C(F)(F)F)nn1-c1cccc(Cl)c1)c1cccc2cn[nH]c12` (stereo not shown) [Example 210, N-((1-(3-chlorophenyl)-3-(trifluoromethyl)-1H-pyrazol-5-yl)methyl)-2-(1H-indazol-7-yl)propanamide]: the inhibitory constant (Ki) in assay [1] is 8.1 nM.

`CC(C(=O)NCc1cc(C(F)(F)F)nn1-c1cccc(Cl)c1)c1cccc2cc(F)ccc12` (stereo not shown) [Example 211, N-((1-(3-chlorophenyl)-3-(trifluoromethyl)-1H-pyrazol-5-yl)methyl)-2-(6-fluornaphthalen-1-yl)propanamide]: the IC50 in assay [2] stood at 154 nM.
